The structures appear in SMILES notation. Structures can show the parent of a compound that is named as a salt.

What all share (format): physicochemical
Data set [1] in a line: Relative efficiency of fluorescence / absolute sensitivity of label, normalized to dye A30 in PBS. The following applies: for Sensitivity of record 655/ 690: excitation 655 nm, record 690 nm; for Sensitivity of record 635/ 670: excitation 635 nm, record 670 nm; for Sensitivity of record max/ max: excitation and record in absorption and fluorescence maxima, ε*Φ normalized to A30 in PBS. The text has this:
The data obtained were as follows: • on excitation and record in absorption and fluorescence maxima, the relative efficiency of fluorescence exceeds 0.80 for dyes (A10), (A22), (A23), (A25), and (A30) in methanol and for dyes (A22), (A25), and (A30) in PBS (Table 1, Fig. 4), whereas for dyes of formula (I) (R1 = -CH3, R2= R6= -SO3^-; R3= -(CH2)5COOH, R4= -C2H5; R5= -H) the values are 0.69 in methanol and 0.67 in PBS; • on excitation at wavelength 655 nm and record at 690 nm, the relative efficiency of fluorescence exceeds 0.25 for dyes (A25) and (A30) in methanol and is higher than 0.18 for dyes (A24) and (A30) in PBS (Table 1, Fig. 5), whereas for dyes of formula (I) (R1 = -CH3, R2 = R6= -SO3^-; R3= -(CH2)5COOH, R4= -C2H5; R5= -H) the values are 0.18 in methanol and 0.11 in PBS; • on excitation at wavelength 635 nm and record at 670 nm, the relative efficiency of fluorescence exceeds 0.50 for dyes (A1), (A11), (A23) in methanol and is higher than 0.45 for dyes (A22), (A25), and (A30) in PBS (Table 1, Fig. 6), whereas for dyes of formula (I) (R1= -CH3, R2= R6= -SO3^-; R3= -(CH2)5COOH, R4= -C2H5; R5= -H) the values are 0.44 in methanol and 0.38 in PBS.
Term sensitivity of fluorescent analysis is defined by the absolute sensitivity of label that may be represented as the product of molar extinction coefficient by quantum efficiency of fluorescence (ε*Φ). Thus, there are determined the absolute sensitivity of indodicarbocyanines (A1-A30, B1-B7) in appropriate absorption and fluorescence maxima in methanol and in aqueous phosphate buffered saline. The values are normalized to the maximal value obtained for dye (A30) in PBS (Table 1). In methanol, dyes (A10, A22, A23, A25, A30) have the upper-range of absolute sensitivity, but in PBS, dyes (A10, A22, A25, A29, A30) have the maximal values of sensitivity (Fig. 4).
To determine the most appropriate dyes for instrument setting, there are measured the relative efficiency of fluorescence of dyes at wavelength of excitation and record of the instrument (655 nm. / 690 nm). The maximal values appear to be specific to dyes (A25) and (A30) in methanol, and to dyes (A19, A22, A25, A29, A30) in PBS (Table 1, Fig. 5).
There are also measured the relative efficiency of fluorescence at wavelength of excitation and record of the instrument (635 nm / 670 nm). The maximal values appear to be specific to dyes (A1, A10, A11, A23) in methanol, and to dyes (A10, A22, A25, A29, A30) in PBS (Table 1, Fig. 6).

Data set [2] can be described thus: Molar extinction coefficient in methanol and PBS. On the set-up: ε·10^-5: unit not given here. As to the method:
For all indodicarbocyanine dyes (I) (A1) - (A30) and (B1) - (B7) of the invention, there are determined the molar extinction coefficients in methanol and in aqueous phosphate buffered saline (PBS) (10 mM potassium phosphate buffer, sodium chloride concentration is 0.9%, pH 7.4). In methanol, indodicarbocyanine (A1, A8, A10-A12, A17, A23) has the upper-range of molar extinction coefficient (ε >[…]). In aqueous phosphate buffered saline (PBS), dyes (A10, A23, A30) have the maximal ε-value (Fig. 2).

Data set [3] in a line: Quantum efficiency of fluorescence, measured versus a reference dye. As to the method: For all indodicarbocyanine dyes (I) (A1) - (A30) and (B1) - (B7) of the invention, there are determined the quantum efficiency of fluorescence in methanol and in aqueous phosphate buffered saline (Table 1, Fig. 3). The measurements are performed versus dyes of formula (I) (R1= -CH3, R2= R6= -SO3^-; R3= -(CH2)5COOH, R4= -C2H5, R5= -H) whose quantum efficiency of fluorescence in PBS is 0.27 (Mader O., K. Reider, H.-J. Egelhaaaf, R, Fischer, R. Brock, Structure Properties of Pentamethine Indocyanine Dyes: Identification of New Dyes for Life Science Applications. Bioconjugate Chem, 2004, vol. 15, pp. 70-78). In methanol, dyes (A10, A22, A25, A29, A30) have the upper-range of quantum efficiency of fluorescence (Φ ∼ 0.3), but in PBS, dyes (A10, A22, A25, A29, A30) have the maximal Φ -value.

The nature of data set [4]: Absorption and fluorescence maxima of the dyes. The source says:
An insertion of methyl group at 5- and 7-positions of indolenyne cycle produces a bathochromic shift in the absorption and fluorescent spectra. As to the rest sulfur containing dyes, the spectral characteristics thereof appear to be in the same range (between about λmax 648 nm and λem 669 nm) (Fig. 1),

Where [5] appears, read: PBS (10 mM potassium phosphate buffer, 0.9% sodium chloride, pH 7.4).

For the compound `CC1(C)C(=CC=CC=CC2=[N+](CCCCS(=O)(=O)[O-])c3ccc(S(=O)(=O)[O-])cc3C2(C)CCCCC(=O)O)N(CCCCS(=O)(=O)[O-])c2ccccc21.[Na+].[Na+]` (stereo not shown) [A24, N,N'-di(4-sulfobutyl)-3-(4-carboxybutyl)-5-sulfo-3,3',3'-trimethylindodicarbocyanine, disodium salt], in data set [1] (PBS), the “Sensitivity of record 655/ 690” value is on record as “higher than 0.18”.
`CC1(C)C(=CC=CC=CC2=[N+](CCCCS(=O)(=O)[O-])c3ccc(CCC(=O)O)cc3C2(C)C)N(CCCCS(=O)(=O)[O-])c2ccccc21.[Na+]` [B5, N,N'-disulfobutyl-5-carboxyethyl-3,3,3',3'-tetramethylindodicarbocyanine, sodium salt]: in data set [2] (solvent not stated), the molar extinction coefficient entry is listed as “about 200,000”. Further, the “Φ (quantum efficiency of fluorescence)” value in data set [3] (MeOH) is 0.17.
As to `CC[N+]1=C(C=CC=CC=C2N(CCCCS(=O)(=O)[O-])c3ccccc3C2(C)C)C(C)(CCCCC(=O)O)c2ccccc21` (stereo not shown) [A8, 3-(4-carboxybutyl)-N'-(4-sulfobutyl)-3,3',3'-trimethyl-N-ethylindodicarbocyanine], the figures for the “ε·10^-5” value in data set [2] (MeOH) and in data set [2] (setting [5]) were 2.20±0.02 and 2.13±0.02, respectively. The compound further showed a molar extinction coefficient (ε) in data set [2] (in methanol) of more than 220000 M⁻¹ cm⁻¹. For the same compound, the “Φ (quantum efficiency of fluorescence)” value turned out to be 0.26 in data set [3] (MeOH) and 0.15 in data set [3] (PBS). Besides, the “Sensitivity of record 635/ 670” value was 0.493 in data set [1] (MeOH) and 0.262 in data set [1] (PBS). Further, the “Sensitivity of record 655/ 690” value in data set [1] (MeOH) was found to be 0.134; in data set [1] (PBS), 0.054. The “Sensitivity of record max/ max” value in data set [1] (MeOH) came to 0.730; in data set [1] (PBS) it was 0.433. For the same compound, the “λmax^abs” value in data set [4] (MeOH) was 647 nm; in data set [4] (PBS) it was 646 nm. The “λmax^em” value in data set [4] (MeOH) worked out at 662 nm; in data set [4] (PBS) it was 660 nm.
As to `CC[N+]1=C(/C=C/C=C/C=C2/N(CCCCS(=O)(=O)[O-])c3ccccc3C2(C)CCCCC(=O)O)C(C)(C)c2cc(C)cc(C)c21` (stereo not shown) [A3, 3-(4-Carboxybutyl)-3,3',3',5',7'-pentamethyl-N-(4-sulfobutyl)-N'-ethylindodicarbocyanine], the “ε·10^-5” value in data set [2] (MeOH) came to 1.93±0.01; in data set [2] (setting [5]), 1.84±0.01. Besides, the “Φ (quantum efficiency of fluorescence)” value is given as 0.12 in data set [3] (MeOH) and 0.08 in data set [3] (PBS). Moreover, the “Sensitivity of record 635/ 670” value in data set [1] (MeOH) is recorded as 0.210; in data set [1] (PBS) it was 0.132. For the same compound, the “Sensitivity of record 655/ 690” value in data set [1] (MeOH) was found to be 0.138; in data set [1] (PBS) it was 0.069. In addition, the “Sensitivity of record max/ max” value in data set [1] (MeOH) amounted to 0.314; in data set [1] (PBS), 0.199. The “λmax^abs” value came to 652 nm in data set [4] (MeOH) and 650 nm in data set [4] (PBS). In addition, the “λmax^em” value is reported as 670 nm in data set [4] (MeOH) and 665 nm in data set [4] (PBS).
For the compound `CC[N+]1=C(/C=C/C=C/C=C2/N(CCCCS(=O)(=O)O)c3ccc(S(=O)(=O)[O-])cc3C2(C)CCCCC(=O)O)C(C)(C)c2cc(S(=O)(=O)O)ccc21` (stereo not shown) [A25, 5,5'-disulfo-3-(4-carboxybutyl)-N-(4-sulfobutyl)-3,3',3'-trimethyl-N'-ethylindodicarbocyanine, disodium salt], in data set [1] (PBS), the “Sensitivity of record 655/ 690” value is on record as “maximal”.
In the case of `CCN1/C(=C/C=C/C=C/C2=[N+](CCCCS(=O)(=O)O)c3ccc(S(=O)(=O)O)cc3C2(C)C)C(C)(CCCCC(=O)O)c2cc(S(=O)(=O)[O-])ccc21` (stereo not shown) [A29, 5,5'-disulfo-3-(4-carboxybutyl)-N'-(4-sulfobutyl)-3,3';3'-trimethyl-N-ethylindodicarbocyanine, disodium salt], in data set [3] (PBS), the “Φ (quantum efficiency of fluorescence)” value was “maximal”. In addition, in data set [1] (PBS), the “Sensitivity of record 635/ 670” value is “maximal”, the “Sensitivity of record 655/ 690” value is “maximal” and the “Sensitivity of record max/ max” value is “maximal”.
With `Cc1ccc2c(c1)C(C)(C)C(=CC=CC=CC1=[N+](CCCCS(=O)(=O)[O-])c3ccc(CCC(=O)O)cc3C1(C)C)N2CCCCS(=O)(=O)[O-].[Na+]` [B4, N,N'-disulfobutyl-5-carboxyethyl-3,3,3',3',5'-pentamethylindodicarbocyanine, sodium salt], the “Φ (quantum efficiency of fluorescence)” value in data set [3] (MeOH) was 0.19.
Regarding `CC1(C)C(C=CC=CC=C2N(CCCCS(=O)(=O)O)c3ccccc3C2(C)CCCCC(=O)O)=[N+](CCCCS(=O)(=O)[O-])c2ccccc21` (stereo not shown) [A10, N,N'-di(4-sulfobutyl)-3-(4-carboxybutyl)-3,3',3'-trimethylindodicarbocyanine, sodium salt], the “Φ (quantum efficiency of fluorescence)” value in data set [3] (MeOH) is recorded as approximately 0.3; in data set [3] (PBS), “maximal”. Besides, the “Sensitivity of record 635/ 670” value in data set [1] (MeOH) and in data set [1] (PBS) was “maximal” throughout. For the same compound, the “Sensitivity of record max/ max” value in data set [1] (PBS) was “maximal”.
For the compound `CCN1C(=CC=CC=CC2=[N+](CC)c3ccc(S(=O)(=O)[O-])cc3C2(C)CCCCC(=O)O)C(C)(C)c2cc(S(=O)(=O)[O-])ccc21.[Na+]` (stereo not shown) [A22, 5,5'-disulfo-N,N'-diethyl-3-(4-carboxybutyl)-3,3',3'-trimethylindodicarbocyanine, sodium salt], the results for the “Φ (quantum efficiency of fluorescence)” value in data set [3] (MeOH) and in data set [3] (PBS) were approximately 0.3 and “maximal”, respectively. The “Sensitivity of record 655/ 690” value in data set [1] (PBS) was “maximal”.
In the case of `CC1(C)C(/C=C/C=C/C=C2/N(CCCCS(=O)(=O)O)c3ccccc3C2(C)CCCCC(=O)O)=[N+](CCCCS(=O)(=O)O)c2ccc(S(=O)(=O)[O-])cc21` (stereo not shown) [A23, N,N'-di(4-sulfobutyl)-3-(4-carboxybutyl)-5'-sulfo-3,3',3'-trimethylindodicarbocyanine, disodium salt], the “molar extinction coefficient (ε)” value in data set [2] (in aqueous phosphate buffered saline (PBS)) is “maximal”.
Compound `Cc1ccc2c(c1)C(C)(CCCCC(=O)O)C(C=CC=CC=C1N(CCCCS(=O)(=O)[O-])c3ccccc3C1(C)C)=[N+]2CCCCS(=O)(=O)[O-].[Na+]` (stereo not shown) [A17, N,N'-di(4-sulfobutyl)-3-(4-carboxybutyl)-3,3',3',5-tetramethylindodicarbocyanine, sodium salt] gave a molar extinction coefficient (ε) in data set [2] (in methanol) of more than 220000 M⁻¹ cm⁻¹.
Take `Cc1ccc2c(c1)C(C)(C)C(=CC=CC=CC1=[N+](CCCCS(=O)(=O)[O-])c3ccc(C)cc3C1(C)CCCCC(=O)O)N2CCCCS(=O)(=O)[O-].[Na+]` (stereo not shown) [A19, N,N'-di(4-sulfobutyl)-3-(4-carboxybutyl)-3,3',3',5,5'-pentamethylindodicarbocyanine, sodium salt]: the “Sensitivity of record 655/ 690” value in data set [1] (PBS) was “maximal”.

The record behind these values is patent publication EP2157088A1, “INDICYANINE DYES AND THE DERIVATIVES THEREOF FOR ANALYSING BIOLOGICAL MICROMOLECULES” (UCHREZHDENIE ROSSIISKOI AKADEMII NAUK INSTITUT …, priority 2007, dated 2008).
